According to article PMC6003898 (EJNMMI Research, 2018):

Assays:
[1] = tested on: human U87-MG glioblastoma tumor xenografts in the flank; assay: in vivo; conditions: mouse
Procedure: (§1) Tumor xenografts were obtained in mice flanks as described previously. Six-week-old female immunodeficient (nu/nu) NMRI mice, weighing 20–25 g, were obtained from Janvier Laboratories (Le Genest Saint Isle, France) and housed in ventilated cages including filter tops with an ad libitum access to food and water. Two xenograft tumors were induced in all mice through subcutaneous flank injections of 2.10^6 of human U87-MG cells. Tumor growth was assessed twice weekly, according to tumor volume (in mm^3) calculated with the formula d2 × D/2, where d and D represent the shortest and longest diameters, respectively, calculated in millimeter with a caliper (decrescent PRC, EDVC, France).
(§2) At the end of the 2nd PET recording, the animals were sacrificed by inhalation of 5% of isoflurane followed by cervical dislocation. Tumors were subsequently surgically removed for further histopathological analysis.
(§3) List-mode acquisitions of 120 min durations were initiated a few seconds prior to tracer injection, and the acquired PET data were subsequently reconstructed in 27 consecutive frames (i.e., 5 frames of 120-s duration followed by 22 frames of 5-min duration) using the ordered-subsets expectation maximization 3D algorithm (OSEM3D, 4 iterations, 16 subsets, zoom 1) together with scatter and attenuation corrections based on transmission source measurement. The final voxel size was 0.8 × 0.8 × 0.9 mm^3.
(§4) Tumor and of various organ activities were determined through SUV mean values within 3D regions of interests (ROI), which were drawn with a dedicated software (Inveon Research Workplace 4.1, Siemens®, Knoxville, USA) on the fusion images encompassing the entire 120-min recording period. Spheroid ROIs were placed inside the liver, brain, and kidney regions with the ROI limits approximating the organ limits as close as possible. Tumor and heart ROIs were obtained with isocontour ROIs and threshold limits of 50 and 80%, respectively, of the maximal voxel value.

[2] = tested on: human U87-MG glioblastoma tumor xenografts in the flank; conditions: mouse, iv
Procedure: Animals were sacrificed by cervical dislocation 60 min after injection. Various tissues (tumor, liver, heart, brain, and kidney) were dissected, weighed, and counted in a calibrated gamma counter (Wizard, PerkinElmer, France). The results were expressed as percentages of injected dose and per gram of tissue (% ID/g).

[3] = tested on: human U87-MG glioblastoma tumor xenografts in the brain; assay: in vivo; conditions: rat
Source text: (§5) Briefly, 8-week-old athymic male nude rats (180–220 g), (Hsd: RH-Foxn1rnu; Envigo, Gannat, France), were anesthetized with a mixture of air and 1.5–2% isoflurane and were placed in a Kopf stereotactic frame (900 M Kopf Instruments, Tujunga, CA). After a scalp incision, a burr hole was drilled 0.5 mm anterior and 2.7 mm lateral to bregma and a skull anchor (Patent N° 11 55596) was affixed.

in vivo [4] = conditions: female, NMRI nu/nu, mouse, iv, 6 MBq, total radioactivity
Procedure: as §1, §2, §3, §4

in vivo [5] = conditions: male, athymic nude (Hsd: RH-Foxn1rnu), rat, total radioactivity
Source text: as §5

SMILES | course of tumor uptake with time [1] | route of tracer clearance [1] | tumor-to-normal brain ratio (PET imaging) [1] | mean tumor activity (SUVmean) ([1]; iv) | tumor-to-normal brain ratio (ex vivo biodistribution data, gamma counter) [2] [%ID/g] | tumor activity relative to contralateral normal brain [3] | SUV at 1 h (in vivo [4]) [SUV] | SUV (in vivo [5]; SUVmean_ contralateral normal brain) [SUV] | SUV (in vivo [5]; SUVmean_Tumor) [SUV]
OC[C@H]1OC(O)[C@H](F)[C@@H](O)[C@@H]1O (stereo partly shown) [^18F-FDG, ^18F-fluorodeoxyglucose] | progressive enhancement | primary renal route of tracer clearance | 1.5 ± 0.37 | 1.19 ± 0.33 | 0.61 ± 0.2 | 1.62 ± 0.15 |  |  | 
N=C(N)NCCC[C@@H]1NC(=O)[C@H](CCCCNC(=O)CCC(C(=O)O)N2CCN(CC(=O)O)CCN(CC(=O)O)CC2)NC(=O)[C@@H](Cc2ccc(O)cc2)NC(=O)[C@H](CC(=O)O)NC(=O)CNC1=O (stereo partly shown) [^68Ga-NODAGA-RGD, metal not drawn] |  | primary renal route of tracer clearance |  |  |  |  | 0.23 ± 0.04 | 0.1 | 0.5
